These results are taken from patent publication US6218379A, “Tricyclic carbacephems” (Hoffmann-la Roche Inc., priority 1996, dated 2001).

The test system of test [1] is Citrobacter freundii 1982. The test is described as follows: Antibacterial activity in vitro (MIC) against Citrobacter freundii 1982. The note with it: read-out: MIC C. freundii 1982. The class given is cell-based. How it is done:
(§1) The minimum inhibitory concentration in vitro (MIC in μg/ml) of a compound of formula I against Citrobacter freundii 1982 and Staphylococcus aureus 887 is measured and compiled in Table 2.

Test [2] has as its system Staphylococcus aureus 887. Put plainly: Antibacterial activity in vitro (MIC) against Staphylococcus aureus 887. The class given is cell-based. The conditions noted are these: read-out: MIC S. aureus 887. As for the experimental part:
as §1

≈ marks a conversion by molar mass, not a printed value. Where a name gives a salt, the structure may show the parent alone.

Regarding `CC(=O)N1C[C@H]2CC(/C=C/c3ccccc3)=C(C(=O)O)N3C(=O)[C@@H]1[C@@H]23` [Example 57, (E)-(1aS,3aR,6bR)-2-Acetyl-1-oxo-5-styryl-1a,2,3,3a,4,6b-hexahydro-1H-2,6a-diaza-cyclobut[cd]indene-6-carboxylic acid sodium salt (1:1)], the MIC in test [1] was determined as 64 µg/mL; in test [2] it was 4 µg/mL.
Taken in the same sequence, the figures for `CC(=O)N1C[C@H]2CC(/C=C/c3ccccn3)=C(C(=O)O)N3C(=O)[C@@H]1[C@@H]23` [Example 58, (E)-(1aS,3aR,6bR)-2-Acetyl-1-oxo-5-(2-pyridin-2-yl-vinyl)-1a,2,3,3a,4,6b-hexahydro-1H-2,6a-diaza-cyclobut[cd]indene-6-carboxylic acid sodium salt (1:1)] were 4 µg/mL and 2 µg/mL.
Taken in the same sequence, the figures for `CC(=O)N1C[C@H]2CC(/C=C/c3ccncc3)=C(C(=O)O)N3C(=O)[C@@H]1[C@@H]23` [Example 59, (E)-(1aS,3aR,6bR)-2-Acetyl-1-oxo-5-(2-pyridin-4-yl-vinyl)-1a,2,3,3a,4,6b-hexahydro-1H-2,6a-diaza-cyclobut[cd]indene-6-carboxylic acid sodium salt (1:1)] were 32 µg/mL and 1 µg/mL.
For `CC(=O)N1C[C@H]2CC(/C=C/c3ccc(O)cc3)=C(C(=O)O)N3C(=O)[C@@H]1[C@@H]23` [Example 60, (E)-(1aS,3aR,6bR)-2-Acetyl-1-oxo-5-[2-(4-hydroxy-phenyl)-vinyl]-1a,2,3,3a,4,6b-hexahydro-1H-2,6a-diaza-cyclobut[cd]indene-6-carboxylic acid sodium salt (1:1)], in that order: 32 µg/mL and 2 µg/mL.
For `CC(=O)N1C[C@H]2CC(/C=C/c3ccc4ccccc4n3)=C(C(=O)O)N3C(=O)[C@@H]1[C@@H]23` [Example 61, (E)-(1aS,3aR,6bR)-2-Acetyl-1-oxo-5-(2-quinolin-2-yl-vinyl)-1a,2,3,3a,4,6b-hexahydro-1H-2,6a-diaza-cyclobut[cd]indene-6-carboxylic acid sodium salt (1:1)], the MIC in test [1] and in test [2] was 64 µg/mL in each case.
`CC(=O)N1C[C@H]2CC(/C=C/c3cccnc3)=C(C(=O)O)N3C(=O)[C@@H]1[C@@H]23` [Example 62, (E)-(1aS,3aR,6bR)-2-Acetyl-1-oxo-5-(2-pyridin-3-yl-vinyl)-1a,2,3,3a,4,6b-hexahydro-1H-2,6a-diaza-cyclobut[cd]indene-6-carboxylic acid sodium salt (1:1)]: the MIC in test [1] came out at 8 µg/mL; in test [2], 2 µg/mL.
As to `CC(=O)N1C[C@H]2CC(/C=C/c3cnc4ccccc4c3)=C(C(=O)O)N3C(=O)[C@@H]1[C@@H]23` [Example 63, (E)-(1aS,3aR,6bR)-2-Acetyl-1-oxo-5-(2-quinolin-3-yl-vinyl)-1a,2,3,3a,4,6b-hexahydro-1H-2,6a-diaza-cyclobut[cd]indene-6-carboxylic acid sodium salt (1:1)], the results for the MIC in test [1] and in test [2] were 64 µg/mL and 0.5 µg/mL, respectively.
Taken in the same sequence, the figures for `O=C(O)C1=C(/C=C/c2ccccn2)C[C@@H]2CN(C(=O)C(F)(F)F)[C@@H]3C(=O)N1[C@H]23` [Example 64, (E)-(1aS,3aR,6bR)-1-Oxo-5-(2-pyridin-2-yl-vinyl)-2-trifluoroacetyl-1a,2,3,3a,4,6b-hexahydro-1H-2,6a-diaza-cyclobut[cd]indene-6-carboxylic acid sodium salt (1:1)] were 32 µg/mL and 2 µg/mL.
For `CC(=O)N1C[C@H]2CC(/C=C/c3ccc[n+](Cc4ccccc4)c3)=C(C(=O)[O-])N3C(=O)[C@@H]1[C@@H]23` [Example 66, (E)-(1aS,3aR,6bR)-2-Acetyl-5-[2-(1-benzyl-pyridin-1-ium-3-yl)-vinyl]-1-oxo-1a,2,3,3a,4,6b-hexahydro-1H-2,6a-diaza-cyclobut[cd]indene-6-carboxylate], in that order: 8 µg/mL (≈ 18.6 µM) and 0.25 µg/mL (≈ 0.582 µM).

What is called MIC is the smallest concentration in the dilution series that meets the test's criterion for growth inhibition.
